# Earlier results as cited in patent US11576926B2, “Composition for use in the prevention and/or treatment of epistaxis” (priority 2018, dated 2023).
# Assays:
# [1] = system: corneal wounds in rat models with type 1 diabetes; details: solution containing 0.3% HA
# [2] = system: nasal mucosa after surgery in the nasal cavity
# [3] = system: fibroblast; details: both in vitro and in vivo
# [4] = system: ultraviolet-induced erythema; details: in vivo
# [5] = system: epidermal wounds
# [6] = system: epithelial tissue in mouse models; details: dexpanthenol cream; after 20 days; vs control group
# [7] = system: dry rhinitis; details: 20 ml spray with 5% dexpanthenol; vs placebo
# [8] = system: TPA (12-O-tetradecanoylphorbol-13-acetate) induced inflammatory response; details: topical, 30 minutes before TPA
# [9] = system: seasonal allergic rhinitis; details: 800 mg/day in addition to the classic anti-allergy treatment; 112 patients
# [10] = system: Escherichia coli; details: silver ions
# [11] = system: Staphylococcus aureus; details: silver ions
# [12] = system: non-allergic and idiopathic rhinitis
# [13] = system: rhinitis sicca syndrome; details: nasal spray; 0.5% ectoin, or 0.5% ectoin and 1.0% dexpanthenol
# [14] = patients who received the therapy, 90 patients
compound,measurement,setting,value
Hyaluronic acid,re-epithelialization of corneal wounds,[1],statistically significant in enhancing re-epithelialization
same,formation of bloody scabs,[2]; after the first week of treatment,prevented excessive formation of bloody scabs
same,tolerability,[2]; all trial participants,well tolerated
same,recovery (healing of the nasal mucosa),"[2]; cream with 2 mg HA per g, 6-week treatment, vs ointments based on plant extracts, 56 patients",recover faster and more effectively than the ointment group
same,adverse effects,[2]; during the trial,No adverse effects were reported
"CC(C)(CO)[C@@H](O)C(=O)NCCCO [dexpanthenol, Dexpanthenol]",fibroblast proliferation,[3],activate fibroblast proliferation
same,effect on experimental ultraviolet-induced erythema,[4],anti-inflammatory effect
same,epidermal regeneration (transepidermal water loss monitoring),[5]; compared to placebo,significant acceleration of epidermal regeneration
same,erythema of epidermal wounds,[5]; dexpanthenol emulsion,reduction in erythema
same,re-epithelialization in wound healing,[5]; monitored by transepidermal water loss,Accelerated re-epithelialization
same,regeneration rate of epithelial tissue,[6],statistically higher than the control group
same,"symptoms of rhinitis (scabs, nasal respiratory capacity)",[7],improving the symptoms of rhinitis
Vitamin E,activity of myeloperoxidase (MPO),[8],inhibits
same,activity of xanthine oxidase (XO),[8],inhibits
same,lipid peroxidation (LPO),[8],inhibits
same,release of hydrogen peroxide,[8],inhibits
same,nasal symptoms associated with allergic rhinitis,[9],reduction of the nasal symptoms
"[Ag] [silver, Silver]","antibacterial effect (structural changes, permeability, ion transport)",[10],eventually leading to death
same,"antibacterial effect (structural changes, permeability, ion transport)",[11],eventually leading to death
same,"improvement in the condition of the nasal epithelium, share of patients","[12]; human, in vivo",over 70%
same,treatment effect compared to placebo,"[12]; human, in vivo",statistically significant compared to placebo
same,"improvement in the nasal decongestion, share of cases",[12]; [14],80%
same,"improvement in the rhinorrhea, share of cases",[12]; [14],93%
CC1=NCC[C@@H](C(=O)O)N1 [ectoin],"nasal obstruction, rhinorrhea and crusting",[13],decreased significantly
same,"recurrent nose bleeding, pharyngitis, exudate viscosity during inflammatory phenomena and cacosmia",[13],this did not occur
